Measured values: US20020058288A1, “TOXOPLASMA GONDII GLYCOCONJUGATES” (priority 1995, published 2002)

System: Wistaria floribunda agglutinin
Experiment: Lectin affinity chromatography on W. floribunda agglutinin agarose
Format: binding
Conditions: elution with 100 mM N-acetylgalactosamine as specific inhibitor, FIG. 7
Procedure: Lectin affinity chromatography was performed as previously described (Nakano et al., Arch. Biochem. Biophys. 311, 117-126, 1994). Briefly, radiolabeled core glycans derived from glycolipid II, III (core glycan A and B respectively) and rat brain THY1 membrane anchor were applied to a 1 ml column of W. floribunda agglutinin agarose (5 mg lectin/ml gel) equilibrated in 50 mM Tris-HCl, pH 7.4 containing 0.02% sodium azide. Elution was accomplished using 25 ml of equilbration buffer followed by 15 ml of the same buffer containing 100 mM N-acetylgalactosamine as specific inhibitor.
FIG. 7: Analysis of core glycans derived from TLC purified glycolipids labelled with ^3H glucosamine on Wisaria floribunda agglutinin agarose: Core glycan A (A), core glycan (B), Man4GalNAcAHM from rat brain Thy1 anchor (C), arrow indicates buffer change

**Q.** Man3(GalNAc)AHM [Core glycan A] was tested. Which “Affinity towards W. floribunda agglutinin column” value did it give?
**A.** bound to the column
